Measurements reported in patent US20230310388A1, “Methods and Compositions for Treating Fungal Infections” (Neoculi Pty Ltd, priority 2020, published 2023).
Values joined by “and” are separate entries in the source; they are usually repeats but may differ in a detail not shown here. Equal values may be shown once.

Columns and labels:
[1] = system: Cryptococcus neoformans; experiment: CLSI broth microdilution MIC (Example 4); type: cell-based
Method: (§1) Antifungal minimum inhibitory concentration (MIC) testing was undertaken as recommended by the CLSI. Briefly, antifungal susceptibility tests were performed for amphotericin B, robenidine (NCL812) and robenidine (NCL) analogs (NCL004, NCL020, NCL023, NCL024, NCL062, NCL094, NCL097, NCL110, NCL113, NCL114, NCL115, NCL135, NCL139, NCL180, NCL181, NCL195, NCL219, NCL220, NCL228, NCL247, NCL250, NCL259, NCL260, NCL263, NCL265, NCL269, NCL274) by standard broth microdilution method (CLSI) in RPMI 1640. Various concentrations (ranging from high to low) of the selected compounds were prepared in RPMI 1640 medium by double dilution in 96-well microtitre plates. Each well contained an inoculum of approximately 2×10^3 cells/mL. The wells without addition of drugs served as negative (no inoculum) and positive (inoculum only) growth controls. Microtitre plates were incubated at 35° C. for 24-48 hours. […] Antifungal MICs were determined for each isolate in duplicate; if the values obtained were different, the MIC test was repeated a third time.

[2] = system: Candida albicans; experiment: CLSI broth microdilution MIC (Example 4); type: cell-based; conditions: for antifungal activity against the two isolates of Candida albicans: summary in words
Method: as §1

[3] = system: Candida albicans ATCC14053; experiment: Broth micro-dilution screen at 16 μg/mL and MIC (Example 9); type: cell-based; conditions: for MIC: C. albicans ATCC14053, test range 0.25-64 μg/mL, duplicate; for Screen at 16 μg/mL: single concentration 16 μg/mL, Growth or No growth of C. albicans ATCC14053
Method: The antifungal activity of 201 NCL analogs against Candida albicans ATCC14053 in vitro was investigated. A broth micro-dilution method was used, according to CLSI guidelines as described. NCL analogs were dissolved in DMSO and originally screened at a single concentration of 16 μg/mL.

[4] = system: Cryptococcus neoformans; experiment: CLSI broth microdilution MIC (Example 6); type: cell-based
Method: (§2) Antifungal minimum inhibitory concentration (MIC) testing was undertaken as recommended by the CLSI (1). Briefly, antifungal susceptibility tests were performed for amphotericin B, robenidine (NCL812) and 10 robenidine analogs (NCL023, NCL024, NCL097, NCL113, NCL115, NCL195, NCL219, NCL220, NCL259, NCL265) by standard broth microdilution method (CLSI) in RPMI 1640. Various concentrations (ranging from high to low) of the selected compounds were prepared in RPMI 1640 medium by double dilution in 96-well microtitre plates. Each well contained an inoculum of approximately 2×10^3 cells/mL. The wells without addition of drugs served as negative (no inoculum) and positive (inoculum only) growth controls. Microtitre plates were incubated at 35° C. for 24-48 hours. […] Antifungal MICs were determined for each isolate in duplicate; if the values obtained were different, the MIC test was repeated a third time.

[5] = system: Candida albicans; experiment: CLSI broth microdilution MIC (Example 6); type: cell-based
Method: as §2

[6] = system: Cryptococcus neoformans; experiment: CLSI broth microdilution MIC (Example 5); type: cell-based
Method: as §2, with “CLSI.” for “CLSI (1).”, “and” for “and 10”, “(NCL23, NCL24, NCL97,” for “(NCL023, NCL024, NCL097,”

[7] = system: Candida albicans; experiment: CLSI broth microdilution MIC (Example 5); type: cell-based
Method: as §2, with “CLSI.” for “CLSI (1).”, “and” for “and 10”, “(NCL23, NCL24, NCL97,” for “(NCL023, NCL024, NCL097,”

[8] = system: C. gattii; experiment: CLSI broth microdilution MIC (Example 6); type: cell-based, Cryptococcus gattii
Method: as §2

[9] = human clinical isolate C. neoformans serotype A/D hybrid
[10] = human clinical isolate C. neoformans var grubii 16-90050434
[11] = human clinical isolate C. neoformans var grubii 17-90028233
[12] = human clinical isolate C. neoformans var grubii 17-93996464
[13] = human clinical isolate C. neoformans var grubii 17-93996964
[14] = clinical isolate C. albicans 12-93301752 Azole Resistant
[15] = clinical isolate C. albicans 14-90045999 Azole Resistant
[16] = clinical isolate C. albicans 15-45171061
[17] = clinical isolate C. albicans 15-91329871
[18] = clinical isolate C. albicans 16-24136919 Azole Resistant
[19] = clinical isolate C. albicans 16-46177400
[20] = clinical isolate C. albicans 16-90050810
[21] = clinical isolate C. albicans 16-90054237
[22] = clinical isolate C. albicans 18-144-00196
[23] = clinical isolate C. albicans 18-148-08188 Azole Resistant
[24] = human clinical isolate C. gatti 17-90232099
[25] = human clinical isolate C. gattii 16-90050373
[26] = human clinical isolate C. gattii 17-90028211
[27] = human clinical isolate C. gattii 17-90028217
[28] = human clinical isolate C. gattii 17-90028242

| SMILES | MIC at 24-48 hours ([1]; Cryptococcus neoformans SA1) [µg/mL] | MIC at 24-48 hours ([1]; Cryptococcus neoformans SA2) [µg/mL] | MIC at 24-48 hours ([2]; Candida albicans ATCC 90028) [µg/mL] | MIC at 24-48 hours ([2]; Candida albicans SA3) [µg/mL] | Screen at 16 μg/mL [3] | MIC ([4]; Cryptococcus neoformans SA1) [µg/mL] | MIC ([4]; Cryptococcus neoformans SA2) [µg/mL] | MIC [4, 10] [µg/mL] | MIC [4, 11] [µg/mL] | MIC [4, 12] [µg/mL] | MIC [4, 13] [µg/mL] | MIC ([5]; C. albicans SA3) [µg/mL] | MIC ([5]; Candida albicans ATCC 90028) [µg/mL] | MIC ([6]; Cryptococcus neoformans SA1) [µg/mL] | MIC ([6]; Cryptococcus neoformans SA2) [µg/mL] | MIC ([7]; C. albicans SA3) [µg/mL] | MIC ([7]; Candida albicans ATCC 90028) [µg/mL] | MIC [7, 14] [µg/mL] | MIC [7, 15] [µg/mL] | MIC [7, 16] [µg/mL] | other results |
| --- | --- | --- | --- | --- | --- | --- | --- | --- | --- | --- | --- | --- | --- | --- | --- | --- | --- | --- | --- | --- | --- |
| Cl.N=C(NN=Cc1cccc(F)c1)NN=Cc1cccc(F)c1 [NCL023] | 16 | 16 | 32 | 32 | No growth | 16 | 16 | 8 | 8 | 8 | 8 | 32 | 32 | 16 | 16 | 32 | 32 | 16 | >16 | 16 | antifungal activity against the two isolates of Candida albicans [2]: high antifungal activity; MIC [3]: 8 µg/mL and 16 µg/mL; MIC [4, 9]: 8 µg/mL; MIC [7, 17]: 16 µg/mL; MIC [7, 18]: 8 µg/mL; MIC [7, 19]: >16 µg/mL; MIC [7, 20]: >16 µg/mL; MIC [7, 21]: 16 µg/mL; MIC [7, 22]: 16 µg/mL; MIC [7, 23]: 16 µg/mL; activity against one or more isolates of Cryptococcus neoformans and Candida albicans ([7]; summary in words): highly active; MIC [8, 24]: 8 µg/mL; MIC [8, 25]: 8 µg/mL; MIC [8, 26]: 16 µg/mL; MIC [8, 27]: 16 µg/mL; MIC [8, 28]: 8 µg/mL |
| Cl.N#Cc1ccc(C=NNC(=N)NN=Cc2ccc(C#N)cc2)cc1 [NCL024] | >32 | 32 | >32 | >32 | Growth | >32 | 32 | 32 | 16 | 32 | 32 | >32 | >32 | >32 | 32 | >32 | >32 | 8 | 4 | 16 | MIC [4, 9]: 32 µg/mL; MIC [7, 17]: >16 µg/mL; MIC [7, 18]: 8 µg/mL; MIC [7, 19]: >16 µg/mL; MIC [7, 20]: >16 µg/mL; MIC [7, 21]: 4 µg/mL; MIC [7, 22]: 16 µg/mL; MIC [7, 23]: >16 µg/mL; activity against one or more isolates of Cryptococcus neoformans and Candida albicans ([7]; summary in words): highly active; MIC [8, 24]: 32 µg/mL; MIC [8, 25]: 16 µg/mL; MIC [8, 26]: 8 µg/mL; MIC [8, 27]: 32 µg/mL; MIC [8, 28]: 32 µg/mL |
| Cl.N=C(NN=Cc1cc(O)c(O)c(O)c1)NN=Cc1cc(O)c(O)c(O)c1 [NCL097] | 16 | 16 | 32 | 8 | No growth | 16 | 16 | 16 to 32 | 32 | 32 | 32 | 8 | 32 | 16 | 16 | 8 | 32 | 8 | 8 | 4 | antifungal activity against the two isolates of Candida albicans [2]: high antifungal activity; MIC [3]: 0.5 µg/mL; MIC ([4]; human clinical isolate C. neoformans serotype A/D hybrid, listed as NCL97): 16 µg/mL and 32 µg/mL; MIC [7, 17]: 8 µg/mL; MIC [7, 18]: 4 to 8 µg/mL; MIC [7, 19]: 8 µg/mL; MIC [7, 20]: 8 µg/mL; MIC [7, 21]: 4 µg/mL; MIC [7, 22]: 8 to 16 µg/mL; MIC [7, 23]: 8 µg/mL; activity against all tested isolates of Cryptococcus neoformans and Candida albicans ([7]; summary in words): active; activity against one or more isolates of Cryptococcus neoformans and Candida albicans ([7]; summary in words): highly active; MIC [8, 24]: 32 µg/mL; MIC [8, 25]: 16 µg/mL; MIC [8, 26]: 16 µg/mL; MIC [8, 27]: 32 µg/mL; MIC [8, 28]: 32 µg/mL |
| CN(C)c1ccc(/C=N/NC(=N)N/N=C/c2ccc(N(C)C)cc2)cc1.Cl [NCL113] | 4 | 4 | >32 | >32 | No growth | 4 | 4 | 4 | 4 | 4 | 4 | >32 | >32 | 4 | 4 | >32 | >32 | 8 | 8 to 16 | 8 | MIC [3]: 4 µg/mL and 8 µg/mL; MIC [4, 9]: 4 µg/mL; MIC [7, 17]: 8 µg/mL; MIC [7, 18]: 8 µg/mL; MIC [7, 19]: 16 µg/mL; MIC [7, 20]: 16 µg/mL; MIC [7, 21]: 8 µg/mL; MIC [7, 22]: 8 µg/mL; MIC [7, 23]: 8 µg/mL; activity against one or more isolates of Cryptococcus neoformans and Candida albicans ([7]; summary in words): highly active; MIC [8, 24]: 4 µg/mL; MIC [8, 25]: 2 to 4 µg/mL; MIC [8, 26]: 4 µg/mL; MIC [8, 27]: 4 to 8 µg/mL; MIC [8, 28]: 2 to 4 µg/mL |
